The supplement of paper PMC10307832

Key:
Assay in all cases: relative viability (nuclei count vs DMSO), 5 days (fraction); higher = more cells survive
MK-8033 + Bortezomib = compound: Cn1cc(-c2cnc3ccc4ccc(CS(=O)(=O)NCc5ccccn5)cc4c(=O)c3c2)cn1 [MK-8033] + CC(C)C[C@H](NC(=O)[C@H](Cc1ccccc1)NC(=O)c1cnccn1)B(O)O [Bortezomib] (partner 0.002 µM)
Summary of the method: (§1)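 Relative viability was taken as the ratio of nuclei in treated wells to nuclei in vehicle wells. Lung cancer cell lines in 1536-well plates received compounds by pin tool one day after seeding, either one drug alone or a fixed anchor-drug dose plus five library-drug doses (not always all listed) in √10 steps. Nuclei were counted on 4× images after 5 days of treatment, and values are medians of duplicate plates.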

Irinotecan + Tozasertib = compound: CCc1c2c(nc3ccc(OC(=O)N4CCC(N5CCCCC5)CC4)cc13)-c1cc3c(c(=O)n1C2)COC(=O)[C@]3(O)CC [Irinotecan] + Cc1cc(Nc2cc(N3CCN(C)CC3)nc(Sc3ccc(NC(=O)C4CC4)cc3)n2)n[nH]1 [Tozasertib] (partner 0.1 µM)
Summary of the method: as §1

RU-SKI 43 + Alpelisib = compound: CC[C@@H](C)CNCC(=O)N1CCC2=C([C@@H]1COC3=CC=CC(=C3)C)C=CS2 [RU-SKI 43] + Cc1nc(NC(=O)N2CCC[C@H]2C(N)=O)sc1-c1ccnc(C(C)(C)C(F)(F)F)c1 [Alpelisib] (partner 2 µM)
Summary of the method: as §1

RU-SKI 43 + Navitoclax = compound: CC[C@@H](C)CNCC(=O)N1CCC2=C([C@@H]1COC3=CC=CC(=C3)C)C=CS2 [RU-SKI 43] + CC1(C)CCC(c2ccc(Cl)cc2)=C(CN2CCN(c3ccc(C(=O)NS(=O)(=O)c4ccc(N[C@H](CCN5CCOCC5)CSc5ccccc5)c(S(=O)(=O)C(F)(F)F)c4)cc3)CC2)C1 [Navitoclax] (partner 0.5 µM)
Summary of the method: as §1

Cell Line: UMC-11
- relative viability (MK-8033 + Bortezomib; first compound 0.02 µM): 0.673
- relative viability (MK-8033 + Bortezomib; first compound 0.06325 µM): 0.664
- relative viability (MK-8033 + Bortezomib; first compound 0.2 µM): 0.831
- relative viability (MK-8033 + Bortezomib; first compound 0.6325 µM): 0.665
- relative viability (MK-8033 + Bortezomib; first compound 2 µM): 0.664
- relative viability (Irinotecan + Tozasertib; first compound 0.6325 µM): 0.194
- relative viability (Irinotecan + Tozasertib; first compound 2 µM): 0.25
- relative viability (Irinotecan + Tozasertib; first compound 6.325 µM): 0.268
- relative viability (Irinotecan + Tozasertib; first compound 20 µM): 0.247
- relative viability (RU-SKI 43 + Alpelisib; first compound 0.1 µM): 1.06
- relative viability (RU-SKI 43 + Alpelisib; first compound 0.3162 µM): 1.18
- relative viability (RU-SKI 43 + Alpelisib; first compound 1 µM): 1.16
- relative viability (RU-SKI 43 + Alpelisib; first compound 3.162 µM): 1.04
- relative viability (RU-SKI 43 + Alpelisib; first compound 10 µM): 0.901
- relative viability (RU-SKI 43 + Navitoclax; first compound 0.1 µM): 0.276
- relative viability (RU-SKI 43 + Navitoclax; first compound 0.3162 µM): 0.315
- relative viability (RU-SKI 43 + Navitoclax; first compound 1 µM): 0.321
- relative viability (RU-SKI 43 + Navitoclax; first compound 3.162 µM): 0.305
- relative viability (RU-SKI 43 + Navitoclax; first compound 10 µM): 0.267
